Data published in the NIST ThermoML archive (doi:10.1021/je400055v).
Numbers after ± are expanded uncertainties.

Conditions: Liquid, Vibrating tube method

CCCCCCCCCCC [undecane]
mass density (313.15 K, 1000 kPa): 726.6 ± 0.3 kg/m3
mass density (313.15 K, 2001 kPa): 727.3 ± 0.3 kg/m3
mass density (313.15 K, 3001 kPa): 728 ± 0.3 kg/m3
mass density (313.15 K, 4000 kPa): 728.7 ± 0.3 kg/m3
mass density (313.15 K, 5000 kPa): 729.5 ± 0.3 kg/m3
mass density (313.15 K, 6001 kPa): 730.2 ± 0.3 kg/m3
mass density (313.15 K, 7000 kPa): 731 ± 0.3 kg/m3
mass density (313.15 K, 8000 kPa): 731.8 ± 0.3 kg/m3
mass density (313.15 K, 9000 kPa): 732.6 ± 0.3 kg/m3
mass density (313.15 K, 10000 kPa): 733.4 ± 0.3 kg/m3
mass density (313.15 K, 11000 kPa): 734.1 ± 0.3 kg/m3
mass density (313.15 K, 12000 kPa): 734.9 ± 0.3 kg/m3
mass density (313.15 K, 13000 kPa): 735.7 ± 0.3 kg/m3
mass density (313.15 K, 14001 kPa): 736.4 ± 0.3 kg/m3
mass density (313.15 K, 15000 kPa): 737.2 ± 0.3 kg/m3
mass density (313.15 K, 16000 kPa): 737.9 ± 0.3 kg/m3
mass density (313.15 K, 17000 kPa): 738.7 ± 0.4 kg/m3
mass density (313.15 K, 18000 kPa): 739.4 ± 0.4 kg/m3
mass density (313.15 K, 19000 kPa): 740 ± 0.4 kg/m3
mass density (313.15 K, 20000 kPa): 740.7 ± 0.4 kg/m3
mass density (313.15 K, 21001 kPa): 741.3 ± 0.4 kg/m3
mass density (313.15 K, 22000 kPa): 742 ± 0.4 kg/m3
mass density (313.15 K, 23000 kPa): 742.6 ± 0.4 kg/m3
mass density (313.15 K, 24000 kPa): 743.2 ± 0.4 kg/m3
mass density (313.15 K, 25000 kPa): 743.7 ± 0.4 kg/m3
mass density (323.1 K, 1000 kPa): 719 ± 0.3 kg/m3
mass density (323.1 K, 2000 kPa): 719.8 ± 0.3 kg/m3
mass density (323.1 K, 3000 kPa): 720.6 ± 0.3 kg/m3
mass density (323.1 K, 4000 kPa): 721.4 ± 0.3 kg/m3
mass density (323.1 K, 5001 kPa): 722.2 ± 0.3 kg/m3
mass density (323.1 K, 6000 kPa): 723 ± 0.3 kg/m3
mass density (323.1 K, 7000 kPa): 723.8 ± 0.3 kg/m3
mass density (323.1 K, 8000 kPa): 724.6 ± 0.3 kg/m3
mass density (323.1 K, 9000 kPa): 725.5 ± 0.3 kg/m3
mass density (323.1 K, 10001 kPa): 726.3 ± 0.3 kg/m3
mass density (323.1 K, 11000 kPa): 727.1 ± 0.3 kg/m3
mass density (323.1 K, 12000 kPa): 727.9 ± 0.3 kg/m3
mass density (323.1 K, 13000 kPa): 728.7 ± 0.3 kg/m3
mass density (323.1 K, 14000 kPa): 729.5 ± 0.3 kg/m3
mass density (323.1 K, 15001 kPa): 730.3 ± 0.3 kg/m3
mass density (323.1 K, 16000 kPa): 731.1 ± 0.4 kg/m3
mass density (323.1 K, 17000 kPa): 731.9 ± 0.4 kg/m3
mass density (323.1 K, 18000 kPa): 732.6 ± 0.4 kg/m3
mass density (323.1 K, 19000 kPa): 733.3 ± 0.4 kg/m3
mass density (323.1 K, 20000 kPa): 734 ± 0.4 kg/m3
mass density (323.1 K, 21000 kPa): 734.7 ± 0.4 kg/m3
mass density (323.1 K, 22000 kPa): 735.4 ± 0.4 kg/m3
mass density (323.1 K, 23000 kPa): 736 ± 0.4 kg/m3
mass density (323.1 K, 24000 kPa): 736.7 ± 0.4 kg/m3
mass density (323.1 K, 25000 kPa): 737.3 ± 0.4 kg/m3
mass density (333.02 K, 1000 kPa): 711.3 ± 0.3 kg/m3
mass density (333.02 K, 2001 kPa): 712.1 ± 0.3 kg/m3
mass density (333.02 K, 3000 kPa): 713 ± 0.3 kg/m3
mass density (333.02 K, 4000 kPa): 713.8 ± 0.3 kg/m3
mass density (333.02 K, 5000 kPa): 714.7 ± 0.3 kg/m3
mass density (333.02 K, 6000 kPa): 715.5 ± 0.3 kg/m3
mass density (333.02 K, 7000 kPa): 716.4 ± 0.3 kg/m3
mass density (333.02 K, 8001 kPa): 717.3 ± 0.3 kg/m3
mass density (333.02 K, 9000 kPa): 718.1 ± 0.3 kg/m3
mass density (333.02 K, 10000 kPa): 719 ± 0.3 kg/m3
mass density (333.02 K, 11000 kPa): 719.9 ± 0.3 kg/m3
mass density (333.02 K, 12000 kPa): 720.7 ± 0.3 kg/m3
mass density (333.02 K, 13000 kPa): 721.5 ± 0.3 kg/m3
mass density (333.02 K, 14000 kPa): 722.4 ± 0.3 kg/m3
mass density (333.02 K, 15000 kPa): 723.2 ± 0.4 kg/m3
mass density (333.02 K, 16000 kPa): 724 ± 0.4 kg/m3
mass density (333.02 K, 17000 kPa): 724.8 ± 0.4 kg/m3
mass density (333.02 K, 18000 kPa): 725.6 ± 0.4 kg/m3
mass density (333.02 K, 19000 kPa): 726.3 ± 0.4 kg/m3
mass density (333.02 K, 20000 kPa): 727.1 ± 0.4 kg/m3
mass density (333.02 K, 21000 kPa): 727.8 ± 0.4 kg/m3
mass density (333.02 K, 22000 kPa): 728.5 ± 0.4 kg/m3
mass density (333.02 K, 23000 kPa): 729.2 ± 0.4 kg/m3
mass density (333.02 K, 24000 kPa): 729.9 ± 0.4 kg/m3
mass density (333.02 K, 25000 kPa): 730.5 ± 0.4 kg/m3
mass density (342.09 K, 1000 kPa): 703.9 ± 0.3 kg/m3
mass density (342.09 K, 2000 kPa): 704.8 ± 0.3 kg/m3
mass density (342.09 K, 3001 kPa): 705.8 ± 0.3 kg/m3
mass density (342.09 K, 4000 kPa): 706.7 ± 0.3 kg/m3
mass density (342.09 K, 5000 kPa): 707.6 ± 0.3 kg/m3
mass density (342.09 K, 6000 kPa): 708.5 ± 0.3 kg/m3
mass density (342.09 K, 7000 kPa): 709.4 ± 0.3 kg/m3
mass density (342.09 K, 8000 kPa): 710.4 ± 0.3 kg/m3
mass density (342.09 K, 9000 kPa): 711.2 ± 0.3 kg/m3
mass density (342.09 K, 10000 kPa): 712.2 ± 0.3 kg/m3
mass density (342.09 K, 11000 kPa): 713.1 ± 0.3 kg/m3
mass density (342.09 K, 12000 kPa): 714 ± 0.3 kg/m3
mass density (342.09 K, 13000 kPa): 714.8 ± 0.3 kg/m3
mass density (342.09 K, 14000 kPa): 715.7 ± 0.3 kg/m3
mass density (342.09 K, 15000 kPa): 716.6 ± 0.4 kg/m3
mass density (342.09 K, 16000 kPa): 717.4 ± 0.4 kg/m3
mass density (342.09 K, 17000 kPa): 718.2 ± 0.4 kg/m3
mass density (342.09 K, 18000 kPa): 719.1 ± 0.4 kg/m3
mass density (342.09 K, 19000 kPa): 719.9 ± 0.4 kg/m3
mass density (342.09 K, 20000 kPa): 720.6 ± 0.4 kg/m3
mass density (342.09 K, 21000 kPa): 721.4 ± 0.4 kg/m3
mass density (342.09 K, 22000 kPa): 722.2 ± 0.4 kg/m3
mass density (342.09 K, 23000 kPa): 722.9 ± 0.4 kg/m3
mass density (342.09 K, 23999 kPa): 723.6 ± 0.4 kg/m3
mass density (342.09 K, 25000 kPa): 724.3 ± 0.4 kg/m3
mass density (352.93 K, 1000 kPa): 696.5 ± 0.3 kg/m3
mass density (352.93 K, 2000 kPa): 697.4 ± 0.3 kg/m3
mass density (352.93 K, 3001 kPa): 698.4 ± 0.3 kg/m3
mass density (352.93 K, 4000 kPa): 699.4 ± 0.3 kg/m3
mass density (352.93 K, 5000 kPa): 700.4 ± 0.3 kg/m3
mass density (352.93 K, 6000 kPa): 701.4 ± 0.3 kg/m3
mass density (352.93 K, 7001 kPa): 702.3 ± 0.3 kg/m3
mass density (352.93 K, 8000 kPa): 703.3 ± 0.3 kg/m3
mass density (352.93 K, 9000 kPa): 704.3 ± 0.3 kg/m3
mass density (352.93 K, 10001 kPa): 705.2 ± 0.3 kg/m3
mass density (352.93 K, 11000 kPa): 706.2 ± 0.3 kg/m3
mass density (352.93 K, 12000 kPa): 707.1 ± 0.3 kg/m3
mass density (352.93 K, 13000 kPa): 708 ± 0.3 kg/m3
mass density (352.93 K, 14000 kPa): 709 ± 0.4 kg/m3
mass density (352.93 K, 15000 kPa): 709.8 ± 0.4 kg/m3
mass density (352.93 K, 16000 kPa): 710.7 ± 0.4 kg/m3
mass density (352.93 K, 17000 kPa): 711.6 ± 0.4 kg/m3
mass density (352.93 K, 18000 kPa): 712.5 ± 0.4 kg/m3
mass density (352.93 K, 19000 kPa): 713.3 ± 0.4 kg/m3
mass density (352.93 K, 20000 kPa): 714.1 ± 0.4 kg/m3
mass density (352.93 K, 21000 kPa): 715 ± 0.4 kg/m3
mass density (352.93 K, 22000 kPa): 715.7 ± 0.4 kg/m3
mass density (352.93 K, 23000 kPa): 716.5 ± 0.4 kg/m3
mass density (352.93 K, 24000 kPa): 717.3 ± 0.4 kg/m3
mass density (352.93 K, 25000 kPa): 718 ± 0.4 kg/m3
mass density (362.91 K, 1000 kPa): 688.8 ± 0.3 kg/m3
mass density (362.91 K, 2001 kPa): 689.9 ± 0.3 kg/m3
mass density (362.91 K, 3000 kPa): 691 ± 0.3 kg/m3
mass density (362.91 K, 4000 kPa): 692 ± 0.3 kg/m3
mass density (362.91 K, 5001 kPa): 693.1 ± 0.3 kg/m3
mass density (362.91 K, 6001 kPa): 694.1 ± 0.3 kg/m3
mass density (362.91 K, 7001 kPa): 695.2 ± 0.3 kg/m3
mass density (362.91 K, 8000 kPa): 696.2 ± 0.3 kg/m3
mass density (362.91 K, 9000 kPa): 697.2 ± 0.3 kg/m3
mass density (362.91 K, 10000 kPa): 698.2 ± 0.3 kg/m3
mass density (362.91 K, 11000 kPa): 699.2 ± 0.3 kg/m3
mass density (362.91 K, 12001 kPa): 700.2 ± 0.3 kg/m3
mass density (362.91 K, 13000 kPa): 701.1 ± 0.3 kg/m3
mass density (362.91 K, 14001 kPa): 702.1 ± 0.4 kg/m3
mass density (362.91 K, 15001 kPa): 703 ± 0.4 kg/m3
mass density (362.91 K, 16001 kPa): 704 ± 0.4 kg/m3
mass density (362.91 K, 17001 kPa): 704.9 ± 0.4 kg/m3
mass density (362.91 K, 18000 kPa): 705.8 ± 0.4 kg/m3
mass density (362.91 K, 19001 kPa): 706.6 ± 0.4 kg/m3
mass density (362.91 K, 20000 kPa): 707.5 ± 0.4 kg/m3
mass density (362.91 K, 21000 kPa): 708.4 ± 0.4 kg/m3
mass density (362.91 K, 22000 kPa): 709.2 ± 0.4 kg/m3
mass density (362.91 K, 23000 kPa): 710 ± 0.4 kg/m3
mass density (362.91 K, 24000 kPa): 710.9 ± 0.4 kg/m3
mass density (362.91 K, 25000 kPa): 711.6 ± 0.4 kg/m3
